The values below come from article PMC8511391, “Optimization of Pichia pastoris Expression System for High-Level Production of Margatoxin” (Frontiers in Pharmacology, 2021).

Bridge positions count the residues as written; N and C are the ends. Ends that are not written are not given here. Peptide text beside a SMILES is read from it.

The test system of assay [1] is IL2R (CD25) expression in CD4^+ TEM cells. Kind of assay: IL2R (CD25) expression in anti-CD3-stimulated CD4+ TEM lymphocytes (flow cytometry). It is filed as cell-based, human. The note with it: for inhibition of IL2R expression: 24 h anti-CD3 stimulation, three donors, technical duplicates, MFI normalized to stimulated; for effect on upregulation of IL2R expression: ∼100× K d (TrMgTx 8.5 nM, UrMgTx 5 nM), 24 h, anti-CD3. An excerpt:
(§1) The mononuclear cells were isolated from anonymized healthy donors as described earlier. Prior to CD4^+ TEM cells separation, dead cells were removed using the Dead Cell Removal Microbead Kit (Miltenyi Biotec B.V & CO. KG, Bergisch Gladbach, Germany). Untouched CD4^+ TEM lymphocytes were purified through magnetic cell sorting (negative selection) with the CD4^+ Effector Memory T Cell Isolation Kit (Miltenyi Biotec B.V. & Co. KG, Bergisch Gladbach, Germany) according to the manufacturer's protocol.
(§2) For TCR-specific stimulation, anti-human CD3 monoclonal antibodies (clone OKT3, BioLegend, San Diego, CA) were bound to the surface of 24-well cell culture plates at a density of 5 µg/well in phosphate-buffered saline (PBS) overnight at 4°C. Before seeding the cells, the wells were washed twice with PBS to remove the unbound antibodies. The CD4^+ TEM cells were divided into four groups: 1) unstimulated, 2) stimulated, 3) stimulated + TrMgTx (8.5 nM), and 4) stimulated + UrMgTx (5 nM). The cells were seeded at a density of 0.5×10^6 cells/ml per well, and when indicated, the cells were preincubated with the toxins for 5 min prior to the stimulation. The plate was incubated at 37°C in 5% CO2 for 24 h. Each experiment was performed in technical duplicates on three different donors.
(§3) For quantifying the extent of TEM cell stimulation, cells were washed with PBS buffer containing 1% of fetal bovine serum (FBS) and stained with fluorescein isothiocyanate (FITC)–labeled anti-human CD154 (CD40L) antibody (clones 24–31, BioLegend, San Diego, CA) and PerCP/Cyanine5.5–labeled anti-human CD25 (IL2R) antibody (clone BC96, BioLegend) at 4°C for 20 min. Cells were washed with the PBS + 1% FBS buffer and resuspended in 150 µl in PBS + 1% FBS. Samples were measured with NovoCyte 3000 RYB flow cytometer (ACEA Bioscience Inc.), FITC and PerCP/Cyanine5.5 were excited by using blue laser (488 nm), and 530/30 nm and 695/40 nm emission filters were used, respectively. Flow cytometry data were analyzed using FCS Express 6.0 (De Novo Software, Glendale, CA). Briefly, cells were gated on the basis of their FSC and SSC parameters, and then, the histograms corresponding to CD40L and CD25 were plotted as peak-normalized overlays. Mean fluorescent intensities (MFIs) were computed from the histograms and normalized to that of their stimulated (S) but not treated control. The negative (unlabeled) and unstimulated control (US) were always used for comparison.
On the technique in general: In flow cytometry, cells or beads pass a laser one at a time.

In assay [2] the test system is CD40L expression in CD4^+ TEM cells. Kind of assay: CD40L (CD154) expression in anti-CD3-stimulated CD4+ TEM lymphocytes (flow cytometry). It is filed as cell-based, human. The note with it: for CD40L expression of stimulated, treated cells vs unstimulated cells: TrMgTx 8.5 nM or UrMgTx 5 nM; for CD40L expression of stimulated, treated cells vs unstimulated cells / effect on upregulation of CD40L expression: 24 h; for inhibition of CD40L expression: 24 h anti-CD3 stimulation, three donors, technical duplicates, MFI normalized to stimulated; for effect on upregulation of CD40L expression: ∼100× K d (TrMgTx 8.5 nM, UrMgTx 5 nM), anti-CD3.
From the text: as §1, §2, §3

For assay [3], the target named is T1, hKv1.2 (Homo sapiens, UniProt P16389).
T1 construct: GFP (from vector pCMV6-GFP); host or cells: CHO cells, transient transfection with Lipofectamine 2000
The experiment in a line: Patch-clamp block of hKv1.2 current (dose-response / equilibrium block) in transfected CHO cells. Type of assay: cell-based. Particulars: for block of whole-cell current at equilibrium: 100 pM toxin, hKv1.2, CHO cells.
Experimental: (§8) Electrophysiological measurements were performed by using the patch-clamp technique in whole-cell or outside-out patch configuration and voltage clamp mode using the Multiclamp 700B amplifier and Axon Digidata1440 digitizer (Molecular Devices, Sunnyvale, CA). Micropipettes were pulled from GC150F-15 borosilicate capillaries (Harvard Apparatus Kent, United Kingdom), resulting in 3–5 MΩ resistance in the bath solution. The extracellular solution contained 145 mM NaCl, 5 mM KCl, 1 mM MgCl2, 2.5 mM CaCl2, 5.5 mM glucose, and 10 mM HEPES, with a pH of 7.35 and an osmolarity between 302 and 308 mOsM/L. When the toxins were dissolved at different molar concentrations in bath solution, it was supplemented with 0.1 mg/ml of BSA. The pipette filling (intracellular) solution consisted of 140 mM KF, 2 mM MgCl2, 1 mM CaCl2, 10 mM HEPES, and 11 mM EGTA, with a pH of 7.22 and an osmolarity of 295 mOsM/L.
Pharmacological activity of both versions of rMgTx was evaluated by studying their effect on the hKv1.2 and hKv1.3 ion channels. […] A custom-built perfusion system was used to apply toxins at a very small perfusion rate of 200 µl/min. […]

The target of assay [4] is T2, hKv1.3 (Homo sapiens, UniProt P22001).
T2 construct: endogenous in cells
Kind of assay: Binding and unbinding kinetics (wash-in/washout, patch-clamp) on hKv1.3. Particulars: for koff: Kv1.3, calculated from averaged τ off; for koff / k on: 3-5 independent experiments; for k on: Kv1.3, calculated from averaged τ on and τ off, 200 pM toxin; for τ on: hKv1.3, 200 pM toxin, wash-in, single exponential; for τ on / τ off: n = 4, ± SEM; for τ off: hKv1.3, washout after 200 pM toxin. The protocol:
(§4) Electrophysiological measurements were performed by using the patch-clamp technique in whole-cell or outside-out patch configuration and voltage clamp mode using the Multiclamp 700B amplifier and Axon Digidata1440 digitizer (Molecular Devices, Sunnyvale, CA). Micropipettes were pulled from GC150F-15 borosilicate capillaries (Harvard Apparatus Kent, United Kingdom), resulting in 3–5 MΩ resistance in the bath solution. The extracellular solution contained 145 mM NaCl, 5 mM KCl, 1 mM MgCl2, 2.5 mM CaCl2, 5.5 mM glucose, and 10 mM HEPES, with a pH of 7.35 and an osmolarity between 302 and 308 mOsM/L. When the toxins were dissolved at different molar concentrations in bath solution, it was supplemented with 0.1 mg/ml of BSA. The pipette filling (intracellular) solution consisted of 140 mM KF, 2 mM MgCl2, 1 mM CaCl2, 10 mM HEPES, and 11 mM EGTA, with a pH of 7.22 and an osmolarity of 295 mOsM/L.
(§5) To record the hKv1.3 and hKv1.2 currents, 15- to 200-ms-long depolarization impulses were applied at +50 mV from a holding potential of −120 mV every 15 s. The pClamp 10.1 software package was used to acquire and analyze the measured data. Current traces were low-pass filtered by the analog four-pole Bessel filters of the amplifiers, and the sampling frequency was set at 20 kHz, at least twice that of the filter cutoff frequency. The effect of the toxin at a given molar concentration was calculated as the remaining current fraction (RCF = I/I0, where I0 is the peak current in the absence of the toxin and I is the peak current at equilibrium block at a given toxin concentration). The data points on dose–response curves represent the mean of 3–4 individual measurements. The data points were fitted with a three-parameter [inhibition] vs response model, RCF = Bottom + [Top–Bottom)/(1+([toxin]/K d )], where Top and Bottom values were constrained to 1 and 0, respectively, and [toxin] is the concentration of the toxin. The best fit curve gave K d of the given toxin.
(§6) To examine the effect of additional residues of TrMgTx on binding to the ion channel, the association and dissociation rate constants of both the versions of the toxin were determined for the Kv1.3 channel of the activated human T lymphocytes and the hKv1.2 channel transiently expressed in the CHO cell. Whole-cell currents were recorded after applying the toxin (200 pM for Kv1.3 and 100 pM for Kv1.2) to the extracellular solution until the equilibrium block was achieved (wash-in), and then removed it by perfusing the toxin-free control solution (washout). Peak currents at a time point t [I(t)] were normalized to the peak current in the absence of the toxin [Inorm(t) = I(t)/I0], and these were plotted as a function of time. The association time constant (τ on ) was determined by fitting the data points during the wash-in procedure in the one-phase decay equation: Inorm(t)=((1−RCF)×e^−t/τon)+RCF , with the RCF = I/I0 at the equilibrium block as defined in the Electrophysiology section. The dissociation time constant (τ off ) was determined by fitting the following equation to the data points during the washout procedure: Inorm(t)=RCF+(1−e^−t/τoff).
(§7) The association rate constant (k on ) and dissociation rate constant (k off ) were calculated from the measured time constants, assuming a simple bimolecular interaction between the channel and toxin, and by using the following equations ([Peter et al., 2001]), with τon and τoff defined above, and [toxin] as the toxin concentration: kon=1−(τon×koff)/τon×[toxin], koff=1/τoff.

For assay [5], the target named is T1, hKv1.2. Kind of assay: Binding and unbinding kinetics (wash-in/washout, patch-clamp) on hKv1.2. The note with it: for k on: Kv1.2, calculated from averaged τ on and τ off, 100 pM toxin; for τ on: hKv1.2, 100 pM toxin, wash-in; for τ on / τ off: ± SEM; for recovery from block on washout: hKv1.2, toxin-free solution after 100 pM; for τ off: hKv1.2, washout after 100 pM toxin. The protocol:
CHO cells were transiently transfected with the vector pCMV6-GFP (OriGene Technologies, Germany) encoding the human Kv1.2 ion channel using Lipofectamine 2000 (Invitrogen, Carlsbad, CA), following the manufacturer's protocol, and grown under the standard conditions as used previously ([Bagdány et al., 2005]). GFP-positive transfectants were identified with Nikon TE 2000U fluorescence microscope (Nikon, Tokyo, Japan), and currents were recorded after 24 h post transfection.
as §4, §5, §6, §7

Assay [6] deals with T2, hKv1.3. Type of assay: cell-based. The note with it: for inhibition of whole-cell current at block equilibrium: 200 pM toxin, hKv1.3.
Experimental: The human venous blood from anonymized healthy donors was obtained from a blood bank. The peripheral blood mononuclear cells were isolated through Histopaque1077 (Sigma-Aldrich Hungary, Budapest, Hungary) density gradient centrifugation. Cells obtained were resuspended in RPMI 1640 medium containing 10% fetal calf serum (Sigma-Aldrich), 100 µg/ml penicillin, 100 µg/ml streptomycin, and 2 mM L glutamine, seeded in a 24-well culture plate at a density of 5 x 10^5 cells per ml, and grown in a 5% CO2 incubator at 37°C for 2–5 days. Phytohemagglutinin A (Sigma-Aldrich) was added in 5, 7, and 10 µg/ml concentrations to the medium to boost the potassium ion channel expression.
as §8
To record the hKv1.3 and hKv1.2 currents, 15- to 200-ms-long depolarization impulses were applied at +50 mV from a holding potential of −120 mV every 15 s. The pClamp 10.1 software package was used to acquire and analyze the measured data. Current traces were low-pass filtered by the analog four-pole Bessel filters of the amplifiers, and the sampling frequency was set at 20 kHz, at least twice that of the filter cutoff frequency. The effect of the toxin at a given molar concentration was calculated as the remaining current fraction (RCF = I/I0, where I0 is the peak current in the absence of the toxin and I is the peak current at equilibrium block at a given toxin concentration). The data points on dose–response curves represent the mean of 3–4 individual measurements. […]
Pharmacological activity of both versions of rMgTx was evaluated by studying their effect on the hKv1.2 and hKv1.3 ion channels. The hKv1.2 current was recorded in CHO cells, which heterologously expressed the hKv1.2 ion channel, and hKv1.3 current was recorded in the human peripheral blood lymphocytes. […]

T2 sequence (P22001 whole entry): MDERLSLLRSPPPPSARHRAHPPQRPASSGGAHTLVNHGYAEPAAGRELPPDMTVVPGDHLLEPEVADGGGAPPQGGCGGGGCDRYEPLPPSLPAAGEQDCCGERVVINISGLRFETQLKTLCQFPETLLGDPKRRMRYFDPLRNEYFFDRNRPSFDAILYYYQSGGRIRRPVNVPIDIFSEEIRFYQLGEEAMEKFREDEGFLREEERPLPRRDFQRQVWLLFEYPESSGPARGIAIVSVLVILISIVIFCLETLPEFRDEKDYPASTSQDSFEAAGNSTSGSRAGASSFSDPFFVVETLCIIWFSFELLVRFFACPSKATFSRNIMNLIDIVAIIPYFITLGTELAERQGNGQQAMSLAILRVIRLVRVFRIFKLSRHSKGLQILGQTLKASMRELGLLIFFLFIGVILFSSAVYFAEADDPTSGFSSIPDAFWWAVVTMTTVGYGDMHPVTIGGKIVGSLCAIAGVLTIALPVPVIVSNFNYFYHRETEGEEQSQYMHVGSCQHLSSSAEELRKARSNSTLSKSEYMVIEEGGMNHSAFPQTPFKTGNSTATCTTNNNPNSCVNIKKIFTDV
T1 sequence (P16389 whole entry): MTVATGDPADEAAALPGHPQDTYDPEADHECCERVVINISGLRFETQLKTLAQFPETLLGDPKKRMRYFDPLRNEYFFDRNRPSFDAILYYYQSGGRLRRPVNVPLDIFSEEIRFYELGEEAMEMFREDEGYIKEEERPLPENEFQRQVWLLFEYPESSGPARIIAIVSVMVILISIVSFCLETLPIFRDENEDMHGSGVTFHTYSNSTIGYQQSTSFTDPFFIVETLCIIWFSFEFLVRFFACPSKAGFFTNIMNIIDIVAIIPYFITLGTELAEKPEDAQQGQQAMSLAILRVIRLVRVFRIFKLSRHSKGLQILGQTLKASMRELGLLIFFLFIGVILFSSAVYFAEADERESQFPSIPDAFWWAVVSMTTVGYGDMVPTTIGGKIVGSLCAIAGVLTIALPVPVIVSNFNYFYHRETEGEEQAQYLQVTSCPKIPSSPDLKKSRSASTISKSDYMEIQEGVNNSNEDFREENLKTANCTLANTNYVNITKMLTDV

In general, koff refers to the rate constant with which the complex falls apart. Take `CC[C@H](C)[C@H](NC(=O)[C@@H](N)[C@@H](C)O)C(=O)N[C@H](C(=O)N[C@@H](CC(N)=O)C(=O)N[C@H](C(=O)N[C@@H](CCCCN)C(=O)N[C@H]1CSSC[C@@H]2NC(=O)[C@H](CCCCN)NC(=O)[C@H](C)NC(=O)CNC(=O)[C@H](C)NC(=O)[C@H](CO)NC(=O)[C@H](CCC(N)=O)NC(=O)CNC(=O)[C@H](Cc3ccccc3)NC(=O)[C@H](CCC(N)=O)NC(=O)[C@H](C)NC(=O)[C@H](CCCCN)NC(=O)[C@@H]3CSSC[C@@H](C(=O)N[C@@H](Cc4ccc(O)cc4)C(=O)N4CCC[C@H]4C(=O)N[C@@H](Cc4c[nH]cn4)C(=O)O)NC(=O)[C@H](CCCCN)NC(=O)[C@H](CSSC[C@H](NC(=O)[C@H](CCC(N)=O)NC(=O)[C@H](CCCCN)NC(=O)[C@@H]4CCCN4C(=O)[C@H](CO)NC(=O)[C@H]([C@@H](C)O)NC1=O)C(=O)N[C@@H](CC(C)C)C(=O)N1CCC[C@H]1C(=O)N1CCC[C@H]1C(=O)N3)NC(=O)[C@H](CCCCN)NC(=O)CNC(=O)[C@H](CC(N)=O)NC(=O)[C@H](CCSC)NC2=O)C(C)C)[C@@H](C)CC` [UrMgTx] (H-TIINVKCTSPKQCLPPCKAQFGQSAGAKCMNGKCKCYPH-OH; disulfide 7-29, 13-34, 17-36; N-terminus and C-terminus assumed): the “inhibition of IL2R expression” value in assay [1] (UrMgTx 5 nM) is recorded as about 45%. Moreover, the “effect on upregulation of IL2R expression” value in assay [1] is on record as “significantly reduced”. For the same compound, in assay [2], the “CD40L expression of stimulated, treated cells vs unstimulated cells” value is “comparable to that of unstimulated cells” and the “effect on upregulation of CD40L expression” value was “significantly reduced”. Besides, the “inhibition of CD40L expression” value in assay [2] (UrMgTx 5 nM) is about 45%. The “block of whole-cell current at equilibrium” value at hKv1.2 [3] is about 90%. In addition, at hKv1.3 [4], the koff is 0.00179 s⁻¹, the k on is 3.43e-05 pM⁻¹ s⁻¹, the τ on was 116 ± 10 s and the τ off was determined as 560 ± 28 s. In addition, the “k on compared with TrMgTx” value on hKv1.3 [4] (hKv1.3, unpaired t test, n = 4, p < 0.001) is “significantly higher”. On hKv1.2 [5] (3-5 independent experiments), the k on is 4.62e-05 pM⁻¹ s⁻¹. For the same compound, at hKv1.2 [5], the τ on was found to be 191 ± 12 s; the “recovery from block on washout” value is “slow and partial recovery”; the τ off was determined as 1308 ± 351 s. Moreover, the “k off compared with TrMgTx” value at hKv1.2 [5] (hKv1.2, unpaired t test, n = 3-4, p < 0.001) is on record as “substantially lower”. The “k on compared with TrMgTx” value at hKv1.2 [5] (hKv1.2, unpaired t test, n = 3-4, p < 0.01) is “slightly higher”. Besides, the “inhibition of whole-cell current at block equilibrium” value at hKv1.3 [6] is listed as about 80%.

As for “EFHHHHHHLQIEGRTIINVKCTSPKQCLPPCKAQFGQSAGAKCMNGKCKCYPH (disulfide 21-43, 27-48, 31-50) [TrMgTx]”, the “inhibition of IL2R expression” value in assay [1] (TrMgTx 8.5 nM) was about 39%. The “effect on upregulation of IL2R expression” value in assay [1] is “significantly reduced”. In assay [2], the “CD40L expression of stimulated, treated cells vs unstimulated cells” value was “comparable to that of unstimulated cells” and the “effect on upregulation of CD40L expression” value is reported as “significantly reduced”. In addition, in assay [2] (TrMgTx 8.5 nM), the “inhibition of CD40L expression” value is listed as about 36%. Further, the “block of whole-cell current at equilibrium” value at hKv1.2 [3] is “about 60%”. The “potency relative to UrMgTx” value on hKv1.2 [3] (hKv1.2, dose-response) is listed as “nearly fivefold less potent”. Moreover, at hKv1.3 [4], the koff is 0.00179 s⁻¹, the k on is 2.14e-05 pM⁻¹ s⁻¹, the τ on was determined as 168 ± 19 s and the τ off is listed as 568 ± 84 s. Moreover, on hKv1.3 [4] (hKv1.3), the “association rate, fold lower than UrMgTx” value is about 1.6 fold. At hKv1.2 [5] (Kv1.2, calculated from averaged τ off, 3-5 independent experiments), the koff was 0.0019 s⁻¹. Also, on hKv1.2 [5] (3-5 independent experiments), the k on is 3.05e-05 pM⁻¹ s⁻¹. At hKv1.2 [5] (hKv1.2), the “association rate, fold lower than UrMgTx” value is listed as about 1.6 fold. In addition, at hKv1.2 [5], the τ on worked out at 202 ± 2.3 s, the “recovery from block on washout” value is on record as “slow but full recovery” and the τ off is recorded as 532 ± 69 s. In addition, the “inhibition of whole-cell current at block equilibrium” value against hKv1.3 [6] was about 70%. For the same compound, the “potency relative to UrMgTx” value on hKv1.3 [6] (hKv1.3, dose-response) is on record as “slightly less potent”.

For charybdotoxin [reference compound], the “reduction in peak current, positive control” value in the assay with hKv1.2 [3] (14 nM charybdotoxin, hKv1.2, data not shown) is “Around 50%”.
